Assay results published in patent US5246947A, “Substituted pyridinylamino-1,2-benzisothiazoles and their use for treating depression” (Hoechst-Roussel Pharmaceuticals Incorporated, priority 1992, dated 1993).
Structures can show the parent of a compound that is named as a salt. Where two headings read alike, the source gives them in different places.

Key:
α2-Receptor = biological target: T1, α2-Receptor (Rattus norvegicus, UniProt P22909); test: [^3 H]-Clonidine Binding: α2-Receptor; design: species or system rat (male Wistar)
T1 construct: the cortical tissue rapidly dissected; from tissue; host or cells: cortical tissue of male Wistar rats, washed membrane suspension
T1 sequence (P22909 1-465): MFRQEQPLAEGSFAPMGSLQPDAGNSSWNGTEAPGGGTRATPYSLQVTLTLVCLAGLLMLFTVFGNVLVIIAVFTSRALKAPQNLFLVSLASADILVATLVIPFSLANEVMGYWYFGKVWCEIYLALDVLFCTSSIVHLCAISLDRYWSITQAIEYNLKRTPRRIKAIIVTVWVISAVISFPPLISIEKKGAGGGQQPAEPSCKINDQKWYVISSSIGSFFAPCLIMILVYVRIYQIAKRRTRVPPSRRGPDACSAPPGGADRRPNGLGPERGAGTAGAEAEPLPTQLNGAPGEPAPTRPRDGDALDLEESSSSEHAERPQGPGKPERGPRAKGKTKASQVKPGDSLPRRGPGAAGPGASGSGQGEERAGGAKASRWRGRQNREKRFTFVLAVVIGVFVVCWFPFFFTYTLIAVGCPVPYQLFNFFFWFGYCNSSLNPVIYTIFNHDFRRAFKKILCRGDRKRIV
Experimental: [^3 H]-Clonidine Binding: α2 -Receptor
The purpose of this assay is to assess the interaction of compounds with central α2 -receptors.
a. 57.2 g Tris HCl 16.2 Tris Base-bring to 1 liter (0.5M Tris buffer, pH 7.7) b. Make a 1:10 dilution in distilled H2 O (0.05M Tris buffer, pH 7.7)
Tris buffer containing physiological ions b. Dilute 1:10 in distilled H2 O. This yields 0.05 M Tris HCl, pH 7.7; containing NaCl (120 mM), KCl (5 mM), CaCl2 (2 mM) and MgCl2 (1 mM) 3. [4-^3 H]-Clonidine hydrochloride (20-30 Ci/mmol) is obtained from New England Nuclear.
Clonidine-HCl is obtained from Boehringer Ingelheim. A stock solution of 0.1 mM clonidine is made up to determine nonspecific binding. This yields a final concentration of 1 μM in the assay (20 μl to 2 ml).
Male Wistar rats are sacrified by decapitation and the cortical tissue rapidly dissected. The tissue is homogenized in 50 volumes of 0.05M Tris buffer, pH 7.7 (buffer 1b) with the Brinkman Polytron, then centrifuged at 40,000 g for 15 minutes. […]
Tissue homogenates are incubated for 20 minutes at 25° C. with 3 nM [^3 H]-clonidine and varying drug concentrations, then immediately filtered under reduced pressure on Whatman GF/B filters. […] Ten ml of liquiscint counting solution is added to each sample which is then counted by liquid scintillation spectroscopy. […] IC50 values are calculated using log-probit analysis.

TPA-induced ear edema = test: TPA-Induced Ear Edema (TPAEE); type: in vivo, mouse (female Swiss Webster); details: topical, ear plug weight after about 5 hours, Table 3
Experimental: The dermatological activity of the compounds was ascertained according to the following method.
TPA-Induced Ear Edema (TPAEE)
The purpose of this assay was to determine the ability of a topically applied compound to prevent ear edema induced by topical application of TPA (phorbol 12-myristate acetate). Female Swiss Webster mice topically received TPA (10 μg/ear) on the right ear and vehicle on the left ear. […] After about 5 hours, the animals are sacrificed and a 4 mm diameter plug is taken from each ear and weighed. The difference between the right and left ear plug weights for each animal was determined. The antiinflammatory activity of the test compound is expressed as the mean percent change in ear plug weight of the treated animals compared to the mean percent change in the plug weight of the control animals. (Young, J. M. et al., J. Invest. Dermatol., 80 (1983), pp. 48-52.)

[1] = tested on: norepinephrine (NE) uptake; test: [^3 H]-Norepinephrine Uptake in Rat Whole Brain Synaptosomes; type: biochemical, rat (male CR Wistar); details: [^3 H]-NE 50 nM, 37° C., 5 min, Table 2
[2] = tested on: serotonin (5-hydroxytryptamine, 5HT) uptake; test: [^3 H]-Serotonin Uptake in Rat Whole Brain and Hypothalamic Synaptosomes; type: biochemical, rat (male CR Wistar); details: [^3 H]-5HT 50 nM, 37° C., 5 min, Table 2
Experimental: [^3 H]-Serotonin Uptake in Rat Whole Brain and Hypothalamic Synaptosomes
This activity is determined in an assay which measures [^3 H]-serotoninuptake in rat whole brain and hypothalamic synaptosomes.
Male CR Wistar rats (100-125 g)
Prepare a 1 liter batch containing the following salts.
3. A 0.1 mM stock solution of serotonin creatinine SO4 is made up in 0.01N HCl. This is used to dilute the specific activity of the radiolabeled 5HT.
4. 5-[1,2-^3 H(N)]-Hydroxytryptamine creatinine sulfate (serotonin), specific activity 20-30 Ci/mmol, is used.
The final desired concentration of [^3 H]-5HT in the assay is 50 nM. The dilution factor is 0.8. The KHBB is made up to contain 62.5 nM of [^3 H]-5HT.
5. For most assays, a 1 mM stock solution of the test compound is made up in a suitable solvent and serially diluted such that the final concentration in the assay ranges from 2×10^-8 to 2×10^-5 M. Seven concentrations are used for each assay.
Male Wistar rats are decapitated and the brain rapidly removed.
Tubes are incubated at 37° C. under a 95% O2 /5% CO2 atmosphere for 5 minutes. For each assay, 3 tubes are incubated with 20 μl of vehicle at 0° C. in an ice bath. After incubation all tubes are immediately centrifuged at 4000 g for 10 minutes. […] The tubes are vigorously vortexted, decanted into scintillation vials, and counted in 10 ml of Liquiscint scintillation counting cocktail. […]

[3] = biological target: T2, Brain AChE (acetylcholinesterase) (Rattus norvegicus, UniProt P37136); test: biochemical; design: species or system rat (male Wistar); details: rat striatum; 5 mM acetylthiocholine final; pH 7.2; Table 1; read-out: Inhibitory Concentration Brain AChE
T2 construct: corpora striata dissected free, weighed and homogenized in 19 volumes; from tissue; host or cells: corpora striata of male Wistar rats, whole homogenate
Excerpt: Cholinesterases are found throughout the body, both in the brain and in serum. However, only brain acetylcholinesterase (AChE) distribution is correlated with central cholinergic innervation. […] We have determined in vitro inhibition of acetylcholinesterase activity in rat striatum according to the method described below.
In Vitro Inhibition of Acetylcholinesterase Activity in Rat Striatum
The method described below was used in this invention for assaying anticholinesterase activity. This is a modification of the method of Ellman et al., Biochem. Pharmacol. 7, 88 (1961).
1. 0.05M Phosphate buffer, pH 7.2
(c) add (a) to (b) until pH reaches 7.2
4. A 2 mM stock solution of the test drug is made up in a suitable solvent and brought to volume with 0.5 mM DTNB (reagent 3). Drugs are serially diluted (1:10) such that the final concentration (in cuvette) is 10^-4 M and screened for activity. If active, IC50 values are determined from the inhibitory activity of subsequent concentrations.
Enzyme activity is measured with the Beckman DU-50 spectrophotometer. This method can be used for IC50 determinations and for measuring kinetic constants.
Reagents are added to the blank and sample cuvettes as follows:
This program also calculates the rate of absorbance change for each cuvette.
Substrate concentration is 10 mM diluted 1:2 in assay yielding final concentration of 5 mM.

T2 sequence (P37136 32-614): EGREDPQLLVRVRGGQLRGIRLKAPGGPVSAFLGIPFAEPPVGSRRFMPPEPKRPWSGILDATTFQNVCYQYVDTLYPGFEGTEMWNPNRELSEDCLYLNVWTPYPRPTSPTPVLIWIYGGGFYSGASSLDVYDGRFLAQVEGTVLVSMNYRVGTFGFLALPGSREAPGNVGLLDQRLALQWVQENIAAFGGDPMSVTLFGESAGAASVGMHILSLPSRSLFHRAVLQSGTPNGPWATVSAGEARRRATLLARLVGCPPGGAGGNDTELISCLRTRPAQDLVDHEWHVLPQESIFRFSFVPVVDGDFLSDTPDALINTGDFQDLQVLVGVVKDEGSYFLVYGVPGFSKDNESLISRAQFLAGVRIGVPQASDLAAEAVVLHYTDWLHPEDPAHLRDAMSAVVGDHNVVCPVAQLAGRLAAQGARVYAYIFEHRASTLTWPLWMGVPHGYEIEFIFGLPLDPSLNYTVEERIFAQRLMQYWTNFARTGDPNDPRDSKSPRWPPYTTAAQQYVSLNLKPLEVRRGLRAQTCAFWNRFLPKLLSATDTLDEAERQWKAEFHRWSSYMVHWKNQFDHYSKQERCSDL

**Q.** Which IC50 (α2-Receptor) does the source give for Cn1ccc2cc(Nc3ccncc3)ccc21 [1-Methyl-5-(4-pyridinylamino)-1H-indole] here?
**A.** 12 nM

**Q.** And the “Edema Reduction” value (TPA-induced ear edema; 10 μg/ear)?
**A.** -67%

**Q.** Which IC50 (α2-Receptor; rat cortical tissue, 3 nM [^3 H]-clonidine, 25° C., 20 min, Table 2, read-out: [^3 H]-Clonidine Binding IC50) does the source give for CCCN(c1ccncc1)c1ccc2c(ccn2C)c1 [1-Methyl-5-(propyl-4-pyridinylamino)-1H-indole maleate] here?
**A.** 330 nM

**Q.** And the IC50 [1]?
**A.** 34 nM

**Q.** What about the IC50 [2] of the same compound?
**A.** 760 nM

**Q.** What about the IC50 [3] of the same compound?
**A.** 31900 nM

**Q.** Which IC50 [1] does the source give for CN(C)CCC=C1c2ccccc2CCc2ccccc21 [Amitriptyline] here?
**A.** 7700 nM

**Q.** For COc1ccc2c(c1)c(CC(=O)O)c(C)n2C(=O)c1ccc(Cl)cc1 [Indomethacin, reference compound], which “Edema Reduction” value (TPA-induced ear edema; at 1 mg/ear) is on record?
**A.** -86%

**Q.** CNCCC=C1c2ccccc2CCc2ccccc21 [Notriptyline] was tested. Which IC50 [1] did it give?
**A.** 4000 nM
